Tested on: TPM3-NTRK1-wt IC50 / primary target (e.g. CD74-ROS1-wt) IC50, Ba/F3 cells
Assay: Cell assay TRKA selectivity (TRKA potency divided by primary target potency)
Format: cell-based
Conditions: for TPM3-NTRK1-wt/CD74-ROS1-G2032R: TRKA selectivity ratio: TPM3-NTRK1-wt IC50 / CD74-ROS1-G2032R IC50, Ba/F3 cells; for TPM3-NTRK1-wt/CD74-ROS1-wt: TRKA selectivity ratio: TPM3-NTRK1-wt IC50 / CD74-ROS1-wt IC50, Ba/F3 cells; for TPM3-NTRK1-wt/EML4-ALK-L1196M-G1202R: TRKA selectivity ratio: TPM3-NTRK1-wt IC50 / EML4-ALK-L1196M-G1202R IC50, Ba/F3 cells; for TPM3-NTRK1-wt/EML4-ALK-wt: TRKA selectivity ratio: TPM3-NTRK1-wt IC50 / EML4-ALK-wt IC50, Ba/F3 cells
Summary of the method: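 IL-3-independent Ba/F3 lines stably expressing TPM3-TRKA or the primary fusion (e.g. CD74-ROS1 wt) were exposed to 3-fold compound dilutions for 72 h. Viability was read by CellTiter-Glo luminescence, with IC50 from four-parameter logistic fit. Selectivity is TPM3-NTRK1 IC50 divided by primary-target IC50, binned A (>30-fold) to D (<1).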

CCn1ncc2c1-c1cnc(N)c(c1)O[C@H](C)c1cc(F)ccc1-c1c(cnn1C)C2 [Example 32, (19R)-3-ethyl-16-fluoro-11,19-dimethyl-20-oxa-3,4,10,11,23-pentaazapentacyclo[19.3.1.0^2,^6.0^8,^12.0^13,^18]pentacosa-1(24),2(6),4,8(12),9,13,15,17,21(25),22-decaen-22-amine]
TPM3-NTRK1-wt/CD74-ROS1-G2032R: A (bin A for very high selectivity, ratio>30-fold) | TPM3-NTRK1-wt/CD74-ROS1-wt: A (bin A for very high selectivity, ratio>30-fold) | TPM3-NTRK1-wt/EML4-ALK-L1196M-G1202R: C (bin C for moderate selectivity, ratio≥1) | TPM3-NTRK1-wt/EML4-ALK-wt: B (bin B for high selectivity, ratio>10-fold)

CC(C)Cn1ncc2c1-c1cnc(N)c(c1)O[C@H](C)c1cc(F)ccc1-c1nn(C)cc1C2 [Example 154, (19R)-16-fluoro-10,19-dimethyl-3-(2-methylpropyl)-20-oxa-3,4,10,11,23-pentaazapentacyclo[19.3.1.0^2,^6.0^8,^12.0^13,^18]pentacosa-1(24),2(6),4,8,11,13,15,17,21(25),22-decaen-22-amine]
TPM3-NTRK1-wt/CD74-ROS1-G2032R: A (bin A for very high selectivity, ratio>30-fold) | TPM3-NTRK1-wt/CD74-ROS1-wt: A (bin A for very high selectivity, ratio>30-fold) | TPM3-NTRK1-wt/EML4-ALK-L1196M-G1202R: B (bin B for high selectivity, ratio>10-fold) | TPM3-NTRK1-wt/EML4-ALK-wt: A (bin A for very high selectivity, ratio>30-fold)

CCn1ncc2c1-c1cnc(N)c(c1)OC(C)c1cc(F)ccc1-c1ncncc1C2 (stereo not shown) [Example 42, 3-ethyl-17-fluoro-20-methyl-21-oxa-3,4,10,12,24-pentaazapentacyclo[20.3.1.0^2,^6.0^8,^13.0^14,^19]hexacosa-1(25),2(6),4,8(13),9,11,14,16,18,22(26),23-undecaen-23-amine]
TPM3-NTRK1-wt/CD74-ROS1-G2032R: A (bin A for very high selectivity, ratio>30-fold) | TPM3-NTRK1-wt/CD74-ROS1-wt: A (bin A for very high selectivity, ratio>30-fold) | TPM3-NTRK1-wt/EML4-ALK-L1196M-G1202R: B (bin B for high selectivity, ratio>10-fold) | TPM3-NTRK1-wt/EML4-ALK-wt: A (bin A for very high selectivity, ratio>30-fold)

CCn1ncc2c1-c1cnc(N)c(c1)OCc1cc(F)ccc1-n1nc(C(F)(F)F)cc1C2 [Example 92, 3-ethyl-16-fluoro-10-(trifluoromethyl)-20-oxa-3,4,11,12,23-pentaazapentacyclo[19.3.1.0^2,^6.0^8,^12.0^13,^18]pentacosa-1(24),2(6),4,8,10,13,15,17,21(25),22-decaen-22-amine]
TPM3-NTRK1-wt/CD74-ROS1-G2032R: A (bin A for very high selectivity, ratio>30-fold) | TPM3-NTRK1-wt/CD74-ROS1-wt: A (bin A for very high selectivity, ratio>30-fold) | TPM3-NTRK1-wt/EML4-ALK-L1196M-G1202R: C (bin C for moderate selectivity, ratio≥1) | TPM3-NTRK1-wt/EML4-ALK-wt: C (bin C for moderate selectivity, ratio≥1)

C[C@H]1Oc2cc(cnc2N)-c2c(C#N)ncn2Cc2cn(C)nc2-c2ccc(F)cc21 [Example 13, (19R)-22-amino-16-fluoro-10,19-dimethyl-20-oxa-4,6,10,11,23-pentaazapentacyclo[19.3.1.0^2,^6.0^8,^12.0^13,^18]pentacosa-1(24),2,4,8,11,13,15,17,21(25),22-decaene-3-carbonitrile]
TPM3-NTRK1-wt/CD74-ROS1-G2032R: A (bin A for very high selectivity, ratio>30-fold) | TPM3-NTRK1-wt/CD74-ROS1-wt: A (bin A for very high selectivity, ratio>30-fold) | TPM3-NTRK1-wt/EML4-ALK-L1196M-G1202R: A (bin A for very high selectivity, ratio>30-fold) | TPM3-NTRK1-wt/EML4-ALK-wt: A (bin A for very high selectivity, ratio>30-fold)

CCc1c(C#N)nn2c1-c1cnc(N)c(c1)O[C@H](C)c1cc(F)ccc1-c1nn(C)cc1C2 [Example 6, (19R)-22-amino-3-ethyl-16-fluoro-10,19-dimethyl-20-oxa-5,6,10,11,23-pentaazapentacyclo[19.3.1.0^2,^6.0^8,^12.0^13,^18]pentacosa-1(24),2,4,8,11,13,15,17,21(25),22-decaene-4-carbonitrile]
TPM3-NTRK1-wt/CD74-ROS1-G2032R: A (bin A for very high selectivity, ratio>30-fold) | TPM3-NTRK1-wt/CD74-ROS1-wt: A (bin A for very high selectivity, ratio>30-fold) | TPM3-NTRK1-wt/EML4-ALK-L1196M-G1202R: C (bin C for moderate selectivity, ratio≥1) | TPM3-NTRK1-wt/EML4-ALK-wt: A (bin A for very high selectivity, ratio>30-fold)

CCn1ncc2c1-c1cnc(N)c(c1)O[C@H](C)c1cc(F)ccc1-n1nc(Cl)cc1C2 [Example 74, (19R)-10-chloro-3-ethyl-16-fluoro-19-methyl-20-oxa-3,4,11,12,23-pentaazapentacyclo[19.3.1.0^2,^6.0^8,^12.0^13,^18]pentacosa-1(24),2(6),4,8,10,13,15,17,21(25),22-decaen-22-amine]
TPM3-NTRK1-wt/CD74-ROS1-G2032R: A (bin A for very high selectivity, ratio>30-fold) | TPM3-NTRK1-wt/CD74-ROS1-wt: A (bin A for very high selectivity, ratio>30-fold) | TPM3-NTRK1-wt/EML4-ALK-L1196M-G1202R: B (bin B for high selectivity, ratio>10-fold) | TPM3-NTRK1-wt/EML4-ALK-wt: A (bin A for very high selectivity, ratio>30-fold)

CCn1ncc2c1-c1cnc(N)c(c1)O[C@H](C)c1cc(F)ccc1-c1nn(C)c(C)c1C2 [Example 87, (19R)-3-ethyl-16-fluoro-9,10,19-trimethyl-20-oxa-3,4,10,11,23-pentaazapentacyclo[19.3.1.0^2,^6.0^8,^12.0^13,^18]pentacosa-1(24),2(6),4,8,11,13,15,17,21(25),22-decaen-22-amine]
TPM3-NTRK1-wt/CD74-ROS1-G2032R: A (bin A for very high selectivity, ratio>30-fold) | TPM3-NTRK1-wt/CD74-ROS1-wt: A (bin A for very high selectivity, ratio>30-fold) | TPM3-NTRK1-wt/EML4-ALK-L1196M-G1202R: C (bin C for moderate selectivity, ratio≥1) | TPM3-NTRK1-wt/EML4-ALK-wt: A (bin A for very high selectivity, ratio>30-fold)

CCn1ncc2c1-c1cnc(N)c(c1)O[C@H](C)c1cc(F)ccc1-c1ncc(OC)cc1C2 [Example 149, (20R)-3-ethyl-17-fluoro-10-methoxy-20-methyl-21-oxa-3,4,12,24-tetraazapentacyclo[20.3.1.0^2,^6.0^8,^13.0^14,^19]hexacosa-1(25),2(6),4,8(13),9,11,14,16,18,22(26),23-undecaen-23-amine]
TPM3-NTRK1-wt/CD74-ROS1-G2032R: B (bin B for high selectivity, ratio>10-fold) | TPM3-NTRK1-wt/CD74-ROS1-wt: A (bin A for very high selectivity, ratio>30-fold) | TPM3-NTRK1-wt/EML4-ALK-L1196M-G1202R: D (bin D for low selectivity, ratio<1) | TPM3-NTRK1-wt/EML4-ALK-wt: B (bin B for high selectivity, ratio>10-fold)

CC1Oc2cc(cnc2N)-c2c(nn(C)c2C#N)Cc2cnccc2-c2ccc(F)cc21 (stereo not shown) [Example 59, 23-amino-17-fluoro-4,20-dimethyl-21-oxa-4,5,10,24-tetraazapentacyclo[20.3.1.0^2,^6.0^8,^13.0^14,^19]hexacosa-1(25),2,5,8(13),9,11,14,16,18,22(26),23-undecaene-3-carbonitrile]
TPM3-NTRK1-wt/CD74-ROS1-G2032R: C (bin C for moderate selectivity, ratio≥1) | TPM3-NTRK1-wt/CD74-ROS1-wt: A (bin A for very high selectivity, ratio>30-fold) | TPM3-NTRK1-wt/EML4-ALK-L1196M-G1202R: D (bin D for low selectivity, ratio<1)

C[C@H]1Oc2cc(cnc2N)-c2c(C#N)cnn2Cc2ccnn2-c2ccc(F)cc21 [Example 62, (19R)-22-amino-16-fluoro-19-methyl-20-oxa-5,6,11,12,23-pentaazapentacyclo[19.3.1.0^2,^6.0^8,^12.0^13,^18]pentacosa-1(24),2,4,8,10,13,15,17,21(25),22-decaene-3-carbonitrile]
TPM3-NTRK1-wt/CD74-ROS1-G2032R: B (bin B for high selectivity, ratio>10-fold) | TPM3-NTRK1-wt/CD74-ROS1-wt: A (bin A for very high selectivity, ratio>30-fold) | TPM3-NTRK1-wt/EML4-ALK-L1196M-G1202R: C (bin C for moderate selectivity, ratio≥1) | TPM3-NTRK1-wt/EML4-ALK-wt: A (bin A for very high selectivity, ratio>30-fold)

C[C@H]1Oc2cc(cnc2N)-c2c(C#N)nnn2Cc2cn(C)nc2-c2ccc(F)cc21 [Example 24, (19R)-22-amino-16-fluoro-10,19-dimethyl-20-oxa-4,5,6,10,11,23-hexaazapentacyclo[19.3.1.0^2,^6.0^8,^12.0^13,^18]pentacosa-1(24),2,4,8,11,13,15,17,21(25),22-decaene-3-carbonitrile]
TPM3-NTRK1-wt/CD74-ROS1-G2032R: A (bin A for very high selectivity, ratio>30-fold) | TPM3-NTRK1-wt/CD74-ROS1-wt: A (bin A for very high selectivity, ratio>30-fold) | TPM3-NTRK1-wt/EML4-ALK-L1196M-G1202R: C (bin C for moderate selectivity, ratio≥1) | TPM3-NTRK1-wt/EML4-ALK-wt: A (bin A for very high selectivity, ratio>30-fold)

CC1Oc2cc(cnc2N)-c2c(cnn2CCF)Cn2ccnc2-c2ccc(F)cc21 (stereo not shown) [Example 39, 16-fluoro-3-(2-fluoroethyl)-19-methyl-20-oxa-3,4,8,11,23-pentaazapentacyclo[19.3.1.0^2,^6.0^8,^12.0^13,^18]pentacosa-1(24),2(6),4,9,11,13,15,17,21(25),22-decaen-22-amine]
TPM3-NTRK1-wt/CD74-ROS1-G2032R: A (bin A for very high selectivity, ratio>30-fold) | TPM3-NTRK1-wt/CD74-ROS1-wt: A (bin A for very high selectivity, ratio>30-fold) | TPM3-NTRK1-wt/EML4-ALK-L1196M-G1202R: C (bin C for moderate selectivity, ratio≥1) | TPM3-NTRK1-wt/EML4-ALK-wt: A (bin A for very high selectivity, ratio>30-fold)

C[C@H]1Oc2cc(cnc2N)-c2c(nn(C)c2C#N)Cc2cccnc2-c2ccc(F)cc21 [Example 112, (20R)-23-amino-17-fluoro-4,20-dimethyl-21-oxa-4,5,12,24-tetraazapentacyclo[20.3.1.0^2,^6.0^8,^13.0^14,^19]hexacosa-1(25),2,5,8(13),9,11,14,16,18,22(26),23-undecaene-3-carbonitrile]
TPM3-NTRK1-wt/CD74-ROS1-G2032R: C (bin C for moderate selectivity, ratio≥1) | TPM3-NTRK1-wt/CD74-ROS1-wt: A (bin A for very high selectivity, ratio>30-fold) | TPM3-NTRK1-wt/EML4-ALK-L1196M-G1202R: D (bin D for low selectivity, ratio<1) | TPM3-NTRK1-wt/EML4-ALK-wt: A (bin A for very high selectivity, ratio>30-fold)

From US11667649B2, “Heteroaromatic macrocyclic ether chemotherapeutic agents” (Nuvalent, Inc., priority 2020, dated 2023)
